pIC50, pKi: −log10 of the molar value.
Assays:
SHMT2 = biological target: T1, SHMT2 (Homo sapiens, UniProt P34897); assay: SHMT2 coupled enzyme assay with MTHFD2 (NADH production); type: biochemical; conditions: mean (standard error), at least three replicate assays
T1 construct: N-terminal His6-tagged SHMT2 (residues 30–504); made in house; host or cells: E. coli Rosetta (DE3)pLysS
T1 sequence (P34897 30-504): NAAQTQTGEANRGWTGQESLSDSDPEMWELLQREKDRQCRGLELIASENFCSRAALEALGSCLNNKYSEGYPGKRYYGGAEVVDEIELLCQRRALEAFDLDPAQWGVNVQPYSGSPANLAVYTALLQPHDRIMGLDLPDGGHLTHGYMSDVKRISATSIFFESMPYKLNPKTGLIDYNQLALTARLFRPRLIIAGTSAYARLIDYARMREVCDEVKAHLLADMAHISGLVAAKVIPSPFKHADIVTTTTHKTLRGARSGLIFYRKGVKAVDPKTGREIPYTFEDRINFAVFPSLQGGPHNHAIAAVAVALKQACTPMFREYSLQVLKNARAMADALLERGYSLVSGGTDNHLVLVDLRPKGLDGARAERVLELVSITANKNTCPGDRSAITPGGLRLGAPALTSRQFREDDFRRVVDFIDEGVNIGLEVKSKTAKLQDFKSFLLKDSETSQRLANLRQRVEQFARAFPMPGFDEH
Description: N-terminal His6-tagged SHMT2 (residues 30–504) and full-length MTHFD2 were expressed in Rosetta (DE3)pLysS cells. One liter cultures were grown in LB media with 100 mg/mL ampicillin and 35 mg/mL chloramphenicol at 37 °C until the OD600 was 0.6. […] The cells were pelleted and resuspended in 25 mL of 25 mM Tris–HCl, pH 7.5, 300 mM NaCl, and 5 mM β-Me. To lyse the cells, 40 mg lysozyme and 8 U DNAse I were added followed by incubation on ice for 15 min. The cells were then lysed by emulsification.
Purification of His-SHMT2 and His-MTHFD2 was by Ni-affinity chromatography (above). For further purification of His-SHMT2, pyridoxal 5′-phosphate (PLP) was added (3-fold excess to His-SHMT2) followed by incubation for 16–18 h. Further purification was by size exclusion chromatography on a Superdex 200 16/60 column (GE Healthcare) with monitoring of PLP absorbance at 435 nm. Purified His-SHMT2 was stored in 20 mM sodium phosphate buffer, pH 7.5, 100 mM potassium chloride, 0.2 mM EDTA, and 5 mM β-ME. To further purify MTHFD2, size exclusion chromatography was performed using a Superdex 200 16/60 column (GE Healthcare). His-MTHFD2 was stored in 50 mM Tris–HCl buffer, pH 7.5, 250 mM sodium chloride, 5% glycerol, and 0.5 mM tris(2-chloroethyl) phosphate (TCEP).
Kinetic measurements were recorded in triplicate in a UV-transparent 96-well plate (Costar 3635) at 298 nm using a BioTek Synergy Neo2 Plate Reader. Initial slopes were graphed against inhibitor concentrations and fit to a three-parameter nonlinear regression to calculate IC50 values for each compound (GraphPad Prism 8.0). […] SHMT2 activity was assayed by monitoring NADH production with a coupled assay including 500 nM His-SHMT2 and 10 μM His-MTHFD2 (1:200 molar ratio His-SHMT2/His-MTHFD2). NADH production by His-MTHFD2 was monitored by fluorescence at 470 nm with excitation at 360 nm (Synergy Neo2 Biotek plate reader). Inhibition constants (Ki’s) were calculated from the IC50 values using the equation Ki = IC50/([S]/KM + 1) and the Km and substrate concentration for THF. The THF concentration in the reaction was 50 mM.

[1] = system: SHMT2 (mitochondrial C1 metabolism) in KB tumor cells; assay: Targeted metabolomics flux analysis with [2,3,3-2H]serine in KB cells; type: cell-based, human; conditions: 0.1 μM compound, 250 μM [2,3,3-2H]serine, versus vehicle-treated cells
Description: Serine is catabolized in the mitochondria via SHMT2, which converts serine to glycine and 5,10-methylene THF, the latter of which is metabolized by MTHFD2 to 10-CHOTHF and by MTHFD1L to formate (Figure 7).
The cells were processed for liquid chromatography–mass spectrometry (LC–MS) analysis of total serine and glycine, and deuterated serine (M + 3, M + 2, M + 1, and M + 0 serine, where M + n represents species with n deuterium atoms) and glycine (M + 1 and M + 0) isotopomers. The results are shown in Figure 8 and are compared to those for control (vehicle-treated) cells (labeled “N/A”).
Figure 8 Metabolomics flux analysis with [2,3,3-^2H]serine to assay mitochondrial C1 metabolism via SHMT2. (A) A schematic of [2,3,3-^2H]serine metabolism is shown. Heavy (^2H) atoms in serine (colored circles) are metabolized via SHMT2 initially followed by MTHFD2 and MTHFD1L to formate. (B, C) Total serine and glycine and the distribution of the serine (M + n, n = 0−3) and glycine (n = 0 or 1) isotopomers are shown. The loss of M + 3 serine corresponding to the metabolism of [2,3,3-^2H]serine to M + 1 glycine is a direct measure of SHMT2 activity in the cells.[45] Experimental methods are described in the Experimental Section. Results are shown as mean values plus/minus standard deviations (n = 3). *P < 0.05; **P < 0.01. […]
KB cells (1 × 10[6]) were seeded in each of three 60 mm dishes in folate-, serine-, and glycine-free RPMI1640 supplemented with 10% DFBS, 1% penicillin/streptomycin, 2 mM L-glutamine, 285 μM serine, 130 μM glycine, and 2 nM leucovorin. […] The targeted metabolites were quantitatively determined using the AB Sciex QTRAP 6500 LC–MS/MS system. […] Isotopomers were detected using multiple reaction monitoring (MRM) at the positive ionization mode. […] Absolute metabolite concentrations were calculated from calibration curves and then normalized to total protein concentrations measured from the postextraction pellet (solubilized in 0.5 N NaOH) using the Folin-phenol method.[53] […] To correct for multiple comparisons, adjusted p values were determined using Holm’s method.

[2] = system: PC43-10 CHO cells (expresses only human RFC); conditions: 96 h; mean (standard error); previously published; cited from earlier work
[3] = system: D4 CHO cells (expresses only human FRβ); conditions: 96 h; mean (standard error); previously published; cited from earlier work

| Compound | pKi (SHMT2) | Increase in M + 3 serine [1] | pIC50 [2] | pIC50 [3] |
| --- | --- | --- | --- | --- |
| Nc1nc2sc(CCCc3ccc(C(=O)N[C@@H](CCC(=O)O)C(=O)O)cc3)cc2c(=O)[nH]1 [Compound 1] | 4.17 | 2–4 fold | < 6.00 | 6.95 |
| Nc1nc2sc(CCCc3ccc(C(=O)N[C@@H](CCC(=O)O)C(=O)O)c(F)c3)cc2c(=O)[nH]1 [Compound 6, (4-(3-(2-Amino-4-oxo-3,4-dihydrothieno[2,3-d]pyrimidin-6-yl)propyl)-2-fluorobenzoyl)-L-glutamic Acid] | 4.56 | 2–4 fold |  |  |
